Among the data in ChEMBL document CHEMBL3797202, “Novel Oxindole Sulfonamides and Sulfamides: EPZ031686, the First Orally Bioavailable Small Molecule SMYD3 Inhibitor” (ACS Med Chem Lett, 2016) are Ki values, retold here.

This assay deals with T1, Histone-lysine N-methyltransferase SMYD3 (Homo sapiens, UniProt Q9H7B4).
T1 sequence (Q9H7B4 whole entry): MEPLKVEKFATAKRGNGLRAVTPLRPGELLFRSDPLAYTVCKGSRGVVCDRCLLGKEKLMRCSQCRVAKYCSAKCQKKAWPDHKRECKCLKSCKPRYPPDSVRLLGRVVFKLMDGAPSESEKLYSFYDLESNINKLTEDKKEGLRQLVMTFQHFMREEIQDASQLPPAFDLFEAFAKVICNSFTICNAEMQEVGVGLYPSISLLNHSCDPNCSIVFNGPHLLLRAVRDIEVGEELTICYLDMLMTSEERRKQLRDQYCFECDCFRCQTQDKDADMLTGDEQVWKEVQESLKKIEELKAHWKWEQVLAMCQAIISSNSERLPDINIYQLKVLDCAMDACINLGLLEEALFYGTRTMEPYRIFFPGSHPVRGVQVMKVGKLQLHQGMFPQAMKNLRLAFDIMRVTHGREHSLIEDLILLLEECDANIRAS
Nature of the assay: Non-competitive inhibition of full length N-terminal His-tagged SMYD3 (1 to 428 residues) (unknown origin) expressed in Escherichia coli using fixed N-terminal GST-tagged MEKK2 substrate and varying SAM levels preincubated for 30 mins followed by substrate addition by filter plate assay.

Compound `O=C1Cc2cc(C(=O)N[C@H]3C[C@H]4CC[C@@H](C3)N4S(=O)(=O)CC3CCN(CCCC(F)(F)F)CC3)c(Cl)cc2N1` registered an inhibition constant (Ki) of 1.2 nM.
